Experimental data from patent US20240269313A1, “CONJUGATES COMPRISING A PHOSPHORUS(V) MOIETY AND A DRUG” (Tubulis GmbH, priority 2022, published 2024).

Legend:
[1] = system: HER2+ cell lines (N87 and SKBR3); assay: In vitro efficacy with hydroxy-containing drugs (aromatic and aliphatic alcohols); assay type: cell-based; conditions: unconjugated drug
Text: The scope of the linker system of conjugates in accordance with embodiments of the invention has been evaluated with further phenol-(or aromatic alcohol-) containing drugs OTS-964, Ganetespib and Birabresib. OTS-964 is a potent TOPK inhibitor, Ganetespib is a potent […], and Birabresib is a potent bromodomain inhibitor. […] Potency of the free payloads (OTS-964, Ganetespib and Birabresib) in the respective cell lines is also shown.
The scope of the linker system described herein has been also evaluated with further aliphatic alcohol-containing drugs SNX-2112, Gemcitabine and Barasertib. SNX-2112 is a potent HSP90-inhibitor, Gemcitabine is a potent ribonucleotide reductase inhibitor, and Barasertib is a potent Aurora B kinase inhibitor. […] Potency of the free payloads (SNX-2112, Gemcitabine and Barasertib) in the respective cell lines is also shown.

[2] = system: Trop2-positive cell lines; assay: In vitro cell viability (in vitro potency) of SN38 based ADCs; conditions: various target-positive cell lines
Experimental: Antibody-drug conjugates (ADCs) comprising the anti-Trop2 antibody Sacituzumab, a phosphorus(V) moiety according to embodiments of the present invention, and SN38 as drug were tested in in vitro potency assays against various Trop2-positive cell lines. The corresponding ADCs with the non-targeted antibody Trastuzumab were used as isotype control. For direct comparison, the approved and marketed ADC Trodelvy comprising Sacituzumab, a CL2A linker and SN38 as drug was also tested. The corresponding ADC with Trastuzumab was used as isotype control.
Linkers have been conjugated to Sacituzumab (anti-Trop2) and Trastuzumab (anti Her2, isotype in this setting) and tested on a panel of 4 different cell lines. All cell lines were Trop+ and Her2−. Trastuzumab conjugates serve as isotype control in this setting. […] Sacituzumab-CL2A-SN38 is Trodelvy and has been purchased for the experiment.

| Compound | activity of free payload [1] | in vitro potency, non-cleavable control vs cleavable conjugate [2] |
| --- | --- | --- |
| CC(C)c1cc(-c2n[nH]c(=O)n2-c2ccc3c(ccn3C)c2)c(O)cc1O [Ganetespib] | highest activity as free payload | – |
| Cc1cc(O)c(-c2ccc(C(C)CN(C)C)cc2)c2c1[nH]c(=O)c1sccc12 (stereo not shown) [OTS-964] | lower activities of the unconjugated drugs | – |
| Sacituzumab conjugated to O—P5(PEG12)-amidopentyl-Phosphoramidate-N-(4-Methylbenzyl)-O—SN38 | – | not active in the in vitro cell viability assay |
| Cc1sc2c(c1C)C(c1ccc(Cl)cc1)=N[C@@H](CC(=O)Nc1ccc(O)cc1)c1nnc(C)n1-2 [Birabresib] | lower activities of the unconjugated drugs | – |
